According to patent US4450269A, “Mono-5-substituted-3-chloro-4H-1,2,6-thiadiazin-4-one antifungal agents” (FMC Corporation, priority 1980, dated 1984):

How the values were obtained:
[1] = system: Phytophthora infestans; test: whole plant or invertebrate; type: in vivo; details: for pest or weed control at 150 ppm: Phytophthora infestans, in Solanum lycopersicum, foliar, read-out: Percent Disease Control, foliar, tomato late blight, 150 ppm, protective; for Percent Disease Control, foliar, tomato late blight: 150 ppm, protective
[2] = system: Helminthosporium oryzae; test: Mycelial growth test; details: for inhibition at 5 ppm / inhibition at 10 ppm / inhibition at 20 ppm / inhibition at 40 ppm: Bipolaris oryzae, 72 h; for inhibition at 5 ppm: read-out: Percent Fungus Growth Inhibition, HO, 5 ppm, 72 hours; for inhibition at 10 ppm: read-out: Percent Fungus Growth Inhibition, HO, 10 ppm, 72 hours; for inhibition at 20 ppm: read-out: Percent Fungus Growth Inhibition, HO, 20 ppm, 72 hours; for inhibition at 40 ppm: read-out: Percent Fungus Growth Inhibition, HO, 40 ppm, 72 hours; for Percent Fungus Growth Inhibition: HO, 72 hours

Row | Compound | pest or weed control at 150 ppm [1] | inhibition at 5 ppm [2] | inhibition at 10 ppm [2] | inhibition at 20 ppm [2] | inhibition at 40 ppm [2] | Percent Disease Control, foliar, tomato late blight [1] | Percent Fungus Growth Inhibition ([2]; 5 ppm) | Percent Fungus Growth Inhibition ([2]; 10 ppm) | Percent Fungus Growth Inhibition ([2]; 20 ppm) | Percent Fungus Growth Inhibition ([2]; 40 ppm)
1 | O=c1c(Cl)nsnc1Oc1ccc(F)cc1 [Compound 11, 3-chloro-5-(4-fluorophenoxy)-4H--1,2,6-thiadiazin-4-one] | 100% | 62% | 100% | 100% | 100% | – | – | – | – | –
2 | CC(=O)c1cccc(Oc2nsnc(Cl)c2=O)c1 [Compound 48, 3-(3-acetylphenoxy)-5-chloro-4H--1,2,6-thiadiazin-4-one] | 98% | 100% | 63% | 100% | 100% | – | – | – | – | –
3 | Cc1cc(Cl)ccc1Oc1nsnc(Cl)c1=O [Compound 55, 3-chloro-5-(4-chloro-2-methylphenoxy)-4H--1,2,6-thiadiazin-4-one] | 90% | 100% | 100% | 91% | 100% | – | – | – | – | –
4 | Cc1cc(Oc2nsnc(Cl)c2=O)cc(C)c1Cl [Compound 59, 3-chloro-5-[(4-chloro-3,5-dimethyl)phenoxy]-4H--1,2,6-thiadiazin-4-one] | 0% | 100% | 100% | 100% | 100% | – | – | – | – | –
5 | CC(=O)c1ccc(Oc2nsnc(Cl)c2=O)cc1 [Compound 47, 3-(4-acetylphenoxy)-5-chloro-4H--1,2,6-thiadiazin-4-one] | 95% | 75% | 88% | 100% | 100% | – | – | – | – | –
6 | Cc1ccc(Oc2nsnc(Cl)c2=O)cc1 [Compound 3, 3-chloro-5-(4-methylphenoxy)-4H--1,2,6-thiadiazin-4-one] | 50% | 55% | 64% | 100% | 100% | – | – | – | – | –
7 | O=c1c(Cl)nsnc1Oc1c(Cl)cc(Cl)cc1Cl [Compound 30, 3-chloro-5-(2,4,6-trichlorophenoxy)-4H--1,2,6-thiadiazin-4-one] | 0% | 59% | 100% | 100% | 100% | – | – | – | – | –
8 | CC(=O)c1ccccc1Oc1nsnc(Cl)c1=O [Compound 49, 3-(2-acetylphenoxy)-5-chloro-4H--1,2,6-thiadiazin-4-one] | 90% | 74% | 100% | 100% | 100% | – | – | – | – | –
9 | O=c1c(Cl)nsnc1Oc1ccc(Cl)c(Cl)c1 [Compound 16, 3-chloro-5-(3,4-dichlorophenoxy)-4H--1,2,6-thiadiazin-4-one] | 0% | 64% | 55% | 55% | 82% | – | – | – | – | –
10 | COc1ccc(Cl)c(Oc2nsnc(Cl)c2=O)c1 [Compound 51, 3-chloro-5-[(2-chloro-5-methoxy)phenoxy]-4H--1,2,6-thiadiazin-4-one] | 90% | 78% | 100% | 100% | 100% | – | – | – | – | –
11 | CC(C)(C)c1ccc(Oc2nsnc(Cl)c2=O)cc1 [Compound 4, 3-chloro-5-(4-tert-butylphnoxy)-4H--1,2,6-thiadiazin-4-one] | 0% | 0% | 0% | 24% | 33% | – | – | – | – | –
12 | CCOC(=O)c1ccc(Oc2nsnc(Cl)c2=O)cc1 [Compound 7, 3-chloro-5-(4-ethoxycarbonylphenoxy)-4H--1,2,6-thiadiazin-4-one] | 100% | 48% | 43% | 100% | 100% | – | – | – | – | –
13 | Cc1ccccc1Oc1nsnc(Cl)c1=O [Compound 22, 3-chloro-5-(2-methylphenoxy)-4H--1,2,6-thiadiazin-4-one] | 0% | 100% | 100% | 100% | 100% | – | – | – | – | –
14 | N#CCc1ccc(Oc2nsnc(Cl)c2=O)cc1 [Compound 46, 3-chloro-5-[(4-cyanomethyl)-phenoxy]4H--1,2,6-thiadiazin-4-one] | 75% | 67% | 89% | 100% | 100% | – | – | – | – | –
15 | O=C(OCc1ccccc1)Oc1ccc(Oc2nsnc(Cl)c2=O)cc1 [Compound 38, 3-chloro-5-[4-(phenylmethoxycarbonyloxy)phenoxyl]-4H-1,2,6-thiadiazin-4-one] | 0% | 56% | 39% | 89% | 100% | – | – | – | – | –
16 | O=c1c(Cl)nsnc1Oc1ccc([N+](=O)[O-])cc1Cl [Compound 53, 3-chloro-5-(2-chloro-4-nitrophenoxy)-4H--1,2,6-thiadiazin-4-one] | 98% | 27% | 100% | 100% | 100% | – | – | – | – | –
17 | Cc1cccc(Oc2nsnc(Cl)c2=O)c1 [Compound 21, 3-chloro-5-(3-methylphenoxy)-4H--1,2,6-thiadiazin-4-one] | 50% | 64% | 86% | 100% | 100% | – | – | – | – | –
18 | O=c1c(Cl)nsnc1Oc1cccc(C(F)(F)F)c1 [Compound 44, 3-chloro-5-[(3-trifluoromethyl)phenoxy]-4H--1,2,6-thiadiazin-4-one] | 0% | 100% | 100% | 100% | 100% | – | – | – | – | –

Row | Compound | pest or weed control at 150 ppm [1] | inhibition at 5 ppm [2] | inhibition at 10 ppm [2] | inhibition at 20 ppm [2] | inhibition at 40 ppm [2] | Percent Disease Control, foliar, tomato late blight [1] | Percent Fungus Growth Inhibition ([2]; 5 ppm) | Percent Fungus Growth Inhibition ([2]; 10 ppm) | Percent Fungus Growth Inhibition ([2]; 20 ppm) | Percent Fungus Growth Inhibition ([2]; 40 ppm)
19 | O=c1c(Cl)nsnc1Oc1ccc([N+](=O)[O-])cc1 [Compound 9, 3-chloro-5-(4-nitrophenoxy)-4H--1,2,6-thiadiazin-4-one] | 90% | 50% | 82% | 86% | 100% | – | – | – | – | –
20 | O=c1c(Cl)nsnc1Oc1ccccc1Cl [Compound 14, 3-chloro-5-(2-chlorophenoxy)-4H--1,2,6-thiadiazin-4-one] | 0% | 71% | 71% | 100% | 100% | – | – | – | – | –
21 | 3-chloro-5-(bromophenoxy)-4H-1,2,6-thiadiazin-4-one [Compound 33] | – | – | – | – | – | 0% | 83% | 91% | 100% | 100%
22 | CC(=O)Nc1ccccc1Oc1nsnc(Cl)c1=O [Compound 43, 3-[(2-acetylamino)-phenoxy]-5-chloro-4H--1,2,6-thiadiazin-4-one] | 0% | 61% | 70% | 65% | 91% | – | – | – | – | –
23 | COc1ccc(Oc2nsnc(Cl)c2=O)cc1 [Compound 5, 3-chloro-5-(4-methoxyphenoxy)4H--1,2,6-thiadiazin-4-one] | 0% | 50% | 64% | 73% | 100% | – | – | – | – | –
24 | COc1cc(Cl)cc(Oc2nsnc(Cl)c2=O)c1 [Compound 52, 3-chloro-5-[(3-chloro-5-methoxy)phenoxy]-4H--1,2,6-thiadiazin-4-one] | 50% | 100% | 89% | 100% | 100% | – | – | – | – | –
25 | O=c1c(Cl)nsnc1Oc1cccc(Cl)c1 [Compound 13, 3-chloro-5-(3-chlorophenoxy)-4H--1,2,6-thiadiazin-4-one] | 98% | 71% | 86% | 76% | 81% | – | – | – | – | –
26 | Cc1cccc(C)c1Oc1nsnc(Cl)c1=O [Compound 24, 3-chloro-5-(2,6-dimethylphenoxy)-4H--1,2,6-thiadiazin-4-one] | 98% | 86% | 100% | 100% | 100% | – | – | – | – | –
27 | O=c1c(Cl)nsnc1Oc1ccccc1 [Compound 2, 3-chloro-5-phenoxy-4H--1,2,6-thiadiazin-4-one] | 0% | 55% | 64% | 100% | 100% | – | – | – | – | –
28 | Cc1cc(Oc2nsnc(Cl)c2=O)cc(C)c1Br [Compound 60, 3-[(4-bromo-3,5-dimethyl)-phenoxy]-5-chloro-4H--1,2,6-thiadiazin-4-one] | 0% | 100% | 77% | 69% | 100% | – | – | – | – | –
29 | Cc1ccc(Cl)c(Oc2nsnc(Cl)c2=O)c1 [Compound 56, 3-chloro-5-[(2-chloro-5-methyl)phenoxy]-4H--1,2,6-thiadiazin-4-one] | 95% | 67% | 100% | 100% | 100% | – | – | – | – | –
30 | Cc1cc(C)cc(Oc2nsnc(Cl)c2=O)c1 [Compound 25, 3-chloro-5-(3,5-dimethylphenoxy)-4H--1,2,6-thiadiazin-4-one] | 100% | 79% | 100% | 100% | 100% | – | – | – | – | –
31 | Nc1ccc(Oc2nsnc(Cl)c2=O)cc1 [Compound 26, 5-(4-aminophenoxy)-3-chloro-4H--1,2,6-thiadiazin-4-one] | – | – | – | 57% | – | 0% | 43% | – | – | 100%
32 | O=c1c(Cl)nsnc1Oc1cccc2ccccc12 [Compound 32, 3-chloro-5(1-naphthoxy)-4H-1,2,6-thiadiazin-4-one] | 0% | 100% | 63% | 100% | 100% | – | – | – | – | –
33 | O=C(Nc1ccccc1)Nc1ccc(Oc2nsnc(Cl)c2=O)cc1 [Compound 29, 3-chloro-5-[4-(3-phenylureido)-phenoxy]-4H--1,2,6-thiadiazin-4-one] | 100% | 0% | 0% | 14% | 0% | – | – | – | – | –
34 | O=c1c(Cl)nsnc1Oc1ccccc1Br [Compound 34, 3-chloro-5-(2-bromophenoxy)-4H-1,2,6,-thiadiazin-4-one] | 0% | 74% | 74% | 100% | 100% | – | – | – | – | –
35 | O=c1c(Cl)nsnc1Oc1ccc(Br)cc1 [Compound 15, 3-chloro-5-(4-bromophenoxy)-4H--1,2,6-thiadiazin-4-one] | 100% | 57% | 90% | 95% | 100% | – | – | – | – | –
